# In patent publication US9149038B2, “4-amino-6-(heterocyclic)picolinates and 6-amino-2-(heterocyclic)pyrimidine-4-carboxylates and their use as herbicides” (Dow AgroSciences LLC, priority 2013, dated 2015):
# Where two headings read alike, the source gives them in different places.
# Assays:
# [1] = tested on: Key Broadleaf Weed and Crop Species; assay: Post-Emergent Test II: postemergent herbicidal activity, visual rating after 14 d (Table 7); format: in vivo; conditions: post-emergence, 336 h; for pest or weed control at 35 g/ha: 35 g ai/ha; for pest or weed control at 70 g/ha: 70 g ai/ha; for pest or weed control at 140 g/ha: 140 g ai/ha
# Description: (§1) Herbicidal evaluations were made visually on a scale of 0 to 100 where 0 represents no activity and 100 represents complete plant death.
# (§2) Seeds or nutlets of the desired test plant species were planted in Sun Gro Metro-Mix® 360 planting mixture, which typically has a pH of 6.0 to 6.8 and an organic matter content of about 30 percent, in plastic pots with a surface area of 64 square centimeters (cm^2). When required to ensure good germination and healthy plants, a fungicide treatment and/or other chemical or physical treatment was applied. The plants were grown for 7-21 d in a greenhouse with an approximate 15 h photoperiod which was maintained at about 23-29° C. during the day and 22-28° C. during the night. Nutrients and water were added on a regular basis and supplemental lighting was provided with overhead metal halide 1000-Watt lamps as necessary. The plants were employed for testing when they reached the first or second true leaf stage.
# (§3) A weighed amount, determined by the highest rate to be tested, of each test compound was placed in a 25 mL glass vial and was dissolved in 4 mL of a 97:3 v/v mixture of acetone and DMSO to obtain concentrated stock solutions. […] The concentrated stock solutions obtained were diluted with 20 mL of an aqueous mixture containing acetone, water, isopropyl alcohol, DMSO, Atplus 411F crop oil concentrate, and Triton® X-155 surfactant in a 48.5:39:10:1.5:1.0:0.02 v/v ratio to obtain spray solutions containing the highest application rates. Additional application rates were obtained by serial dilution of 12 mL of the high rate solution into a solution containing 2 mL of a 97:3 v/v mixture of acetone and DMSO and 10 mL of an aqueous mixture containing acetone, water, isopropyl alcohol, DMSO, Atplus 411F crop oil concentrate, and Triton X-155 surfactant in a 48.5:39:10:1.5:1.0:0.02 v/v ratio to obtain ½×, ¼×, ⅛× and 1/16× rates of the high rate. Compound requirements are based upon a 12 mL application volume at a rate of 187 liters per hectare (L/ha). Formulated compounds were applied to the plant material with an overhead Mandel track sprayer equipped with 8002E nozzles calibrated to deliver 187 L/ha over an application area of 0.503 square meters at a spray height of 18 inches (43 cm) above the average plant canopy height. Control plants were sprayed in the same manner with the solvent blank.
# (§4) The treated plants and control plants were placed in a greenhouse as described above and watered by subirrigation to prevent wash-off of the test compounds. After 14 d, the condition of the test plants as compared with that of the untreated plants was determined visually and scored on a scale of 0 to 100 percent where 0 corresponds to no injury and 100 corresponds to complete kill and are presented as indicated in Table 4.
# [2] = tested on: Key Grass and Sedge Weeds as well as Grass Crops; assay: Post-Emergent Test II: postemergent herbicidal activity, visual rating after 14 d (Table 8); format: in vivo; conditions: post-emergence, 336 h; for pest or weed control at 35 g/ha: 35 g ai/ha; for pest or weed control at 70 g/ha: 70 g ai/ha; for pest or weed control at 140 g/ha: 140 g ai/ha
# Description: as §1, §2, §3, §4
# [3] = lambsquarters (Chenopodium album), read-out: Visual Growth Reduction (%) 14 Days After Application CHEAL
# [4] = oilseed rape, canola (Brassica napus), read-out: Visual Growth Reduction (%) 14 Days After Application BRSNN
# [5] = redroot pigweed (Amaranthus retroflexus), read-out: Visual Growth Reduction (%) 14 Days After Application AMARE
# [6] = sunflower (Helianthus annuus), read-out: Visual Growth Reduction (%) 14 Days After Application HELAN
# [7] = velvetleaf (Abutilon theophrasti), read-out: Visual Growth Reduction (%) 14 Days After Application ABUTH
# [8] = wild poinsettia (Euphorbia heterophylla), read-out: Visual Growth Reduction (%) 14 Days After Application EPHHL
# [9] = giant foxtail (Setaria faberi), read-out: Visual Growth Reduction (%) 14 Days After Application SETFA
# [10] = maize, corn (Zea mays), read-out: Visual Growth Reduction (%) 14 Days After Application ZEAMX
# [11] = rice (Oryza sativa), read-out: Visual Growth Reduction (%) 14 Days After Application ORYSA
# [12] = wheat, spring (Triticum aestivum), read-out: Visual Growth Reduction (%) 14 Days After Application TRZAS
# [13] = yellow nutsedge (Cyperus esculentus), read-out: Visual Growth Reduction (%) 14 Days After Application CYPES
# [14] = barnyardgrass (Echinochloa crus-galli), read-out: Visual Growth Reduction (%) 14 Days After Application ECHCG
SMILES,"pest or weed control at 35 g/ha [1, 3]","pest or weed control at 70 g/ha [1, 3]","pest or weed control at 140 g/ha [1, 3]","pest or weed control at 35 g/ha [1, 4]","pest or weed control at 70 g/ha [1, 4]","pest or weed control at 140 g/ha [1, 4]","pest or weed control at 35 g/ha [1, 5]","pest or weed control at 70 g/ha [1, 5]","pest or weed control at 140 g/ha [1, 5]","pest or weed control at 35 g/ha [1, 6]","pest or weed control at 70 g/ha [1, 6]","pest or weed control at 140 g/ha [1, 6]","pest or weed control at 35 g/ha [1, 7]","pest or weed control at 70 g/ha [1, 7]","pest or weed control at 140 g/ha [1, 7]","pest or weed control at 35 g/ha [1, 8]","pest or weed control at 70 g/ha [1, 8]","pest or weed control at 140 g/ha [1, 8]","pest or weed control at 35 g/ha [2, 10]","pest or weed control at 70 g/ha [2, 10]",also measured
Nc1cc(-c2ccc3c(c2Cl)OC(F)(F)O3)nc(C(=O)O)c1Cl [Compound 34],75 to 84%,75 to 84%,75 to 84%,75 to 84%,75 to 84%,85 to 94%,85 to 94%,95 to 100%,95 to 100%,75 to 84%,85 to 94%,85 to 94%,45 to 59%,60 to 74%,75 to 84%,45 to 59%,60 to 74%,60 to 74%,60 to 74%,60 to 74%,"pest or weed control at 35 g/ha [2, 9]: 75 to 84%; pest or weed control at 70 g/ha [2, 9]: 75 to 84%; pest or weed control at 140 g/ha [2, 9]: 75 to 84%; pest or weed control at 140 g/ha [2, 10]: 60 to 74%; pest or weed control at 35 g/ha [2, 11]: 0 to 29%; pest or weed control at 70 g/ha [2, 11]: 0 to 29%; pest or weed control at 140 g/ha [2, 11]: 0 to 29%; pest or weed control at 35 g/ha [2, 12]: 45 to 59%; pest or weed control at 70 g/ha [2, 12]: 60 to 74%; pest or weed control at 140 g/ha [2, 12]: 60 to 74%; pest or weed control at 35 g/ha [2, 13]: 0 to 29%; pest or weed control at 70 g/ha [2, 13]: 0 to 29%; pest or weed control at 140 g/ha [2, 13]: 0 to 29%"
Cc1c(-c2cc(N)c(Cl)c(C(=O)O)n2)ccc2c1OC(F)(F)O2 [Compound 36],0 to 29%,45 to 59%,45 to 59%,0 to 29%,30 to 44%,45 to 59%,95 to 100%,95 to 100%,95 to 100%,75 to 84%,75 to 84%,85 to 94%,0 to 29%,0 to 29%,0 to 29%,0 to 29%,0 to 29%,0 to 29%,0 to 29%,0 to 29%,"pest or weed control at 35 g/ha [2, 9]: 0 to 29%; pest or weed control at 70 g/ha [2, 9]: 30 to 44%; pest or weed control at 140 g/ha [2, 9]: 45 to 59%; pest or weed control at 140 g/ha [2, 10]: 0 to 29%; pest or weed control at 35 g/ha [2, 11]: 0 to 29%; pest or weed control at 70 g/ha [2, 11]: 0 to 29%; pest or weed control at 140 g/ha [2, 11]: 0 to 29%; pest or weed control at 35 g/ha [2, 12]: 0 to 29%; pest or weed control at 70 g/ha [2, 12]: 0 to 29%; pest or weed control at 140 g/ha [2, 12]: 0 to 29%; pest or weed control at 35 g/ha [2, 13]: 0 to 29%; pest or weed control at 70 g/ha [2, 13]: 0 to 29%; pest or weed control at 140 g/ha [2, 13]: 0 to 29%"
COC(=O)c1nc(-c2cc3c(cc2Cl)OC(F)(F)O3)cc(N)c1Cl [Compound 40],0 to 29%,0 to 29%,0 to 29%,0 to 29%,0 to 29%,0 to 29%,0 to 29%,95 to 100%,95 to 100%,0 to 29%,0 to 29%,0 to 29%,0 to 29%,0 to 29%,0 to 29%,0 to 29%,0 to 29%,0 to 29%,0 to 29%,0 to 29%,"pest or weed control at 35 g/ha [2, 14]: 0 to 29%; pest or weed control at 70 g/ha [2, 14]: 0 to 29%; pest or weed control at 140 g/ha [2, 14]: 0 to 29%; pest or weed control at 140 g/ha [2, 10]: 45 to 59%; pest or weed control at 35 g/ha [2, 11]: 0 to 29%; pest or weed control at 70 g/ha [2, 11]: 0 to 29%; pest or weed control at 140 g/ha [2, 11]: 0 to 29%; pest or weed control at 35 g/ha [2, 12]: 0 to 29%; pest or weed control at 70 g/ha [2, 12]: 0 to 29%; pest or weed control at 140 g/ha [2, 12]: 0 to 29%; pest or weed control at 35 g/ha [2, 13]: 0 to 29%; pest or weed control at 70 g/ha [2, 13]: 0 to 29%; pest or weed control at 140 g/ha [2, 13]: 0 to 29%"
